# Columns and labels:
# [1] = From the text: (§1) Glibenclamide (Gb) is an oral hypoglycaemic agent of the sulfonyl urea group; however it is only sparingly soluble in water.
# [2] = tested on: albino rats, made partially diabetic by administering streptozotocin; experiment: Hypoglycaemic action (plasma glucose level) in albino rats made partially diabetic by streptozotocin; format: in vivo, rat; details: Gb 1.0 mg/kg, water-suspension, p.o., n=10
# From the text: as §1
# human volunteers = experiment: Analgetic effect in human volunteers, oral; format: in vivo; details: Ptz alone, 50 mg oral
# albino rats = experiment: Analgetic effect in albino rats, oral; format: in vivo, rat; details: Ptz alone, up to 240 mg/kg, p.o.
# [3] = oral; background statement, species not given; cited from earlier work
# [4] = tested on: Streptozocin (Stz)-induced diabetic (SID) rats; experiment: Plasma glucose level lowering in streptozocin-induced diabetic (SID) rats; format: in vivo, rat
# Description: Streptozocin (Stz)-induced diabetic (SID) rats were used for this study. Insulin (I, 1.0 U/kg, p.o.) produed only marginal lowering (<10%) of plasma glucose level (PGL) in SID rats. […] By contrast, purified fulvic acid-insulin compositions (0.25 U/kg+10 mg/kg, p.o.) produced a 25% lowering, and Fulvic Acid-Insulin compositions (0.5 U/kg+10 mg/kg, p.o.) produced a 38% lowering of PGL in SID rates. The effect lasted for 6 hours.
molecule,measurement,setting,value
"COc1ccc(Cl)cc1C(=O)NCCc1ccc(S(=O)(=O)NC(=O)NC2CCCCC2)cc1 [Gb, Glibenclamide]",solubility in water,[1],10-12%
same,blood sugar lowering effect,[2],did not exhibit any noticeable blood sugar lowering effect
"CC(C)=CCN1CCC2(C)c3cc(O)ccc3CC1C2C (stereo not shown) [Ptz, Pentazocin]",analgetic effect compared with codeine,human volunteers,effective analgetic equivalent to 60 mg of codeine
same,duration of analgesia,human volunteers,120 min
same,time of onset of analgesia,human volunteers,60 min
same,analgetic effect,albino rats,does not exhibit any analgetic effect
same,"bioavailability, administered orally",[3],30-35%
Insulin,PGL lowering effect,[4]; insulin 0.25 U/kg p.o.,did not exhibit any PGL lowering effect
same,PGL lowering effect,[4]; insulin 0.5 U/kg p.o.,did not exhibit any PGL lowering effect
same,lowering of plasma glucose level (PGL),"[4]; insulin 1.0 U/kg, p.o.",< 10%

# Reference: patent publication US6558712B1, “Delivery system for pharmaceutical, nutritional and cosmetic ingredients” (Natreon Inc., priority 2001, dated 2003)
